Measured values taken from publication PMC11191095, “QSAR Reveals Decreased Lipophilicity of Polar Residues Determines the Selectivity of Antimicrobial Peptide Activity” (ACS Omega, 2024).
Where a SMILES comes first, the peptide text is derived from it.

Assays:
Assay in all cases: microbe, parasite or virus in culture
[1] = system: E. coli LEC001; type: cell-based, Escherichia coli; settings: E. coli LEC001 (R)
In short: (§1)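 Peptides 128→2 μg/mL, 2-fold series; inoculum ~5 × 10^5 CFU/mL from overnight culture (OD600 0.01, mixed 1:1). MHB non-cation-adjusted for bacteria, RPMI 1640 + 2% glucose for fungi. 37 °C, 20 h, OD600. MIC50/MIC90 at 50%/90% inhibition; n ≥ 3.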

[2] = system: E. coli NCTC 12923; type: cell-based, Escherichia coli; settings: E. coli NCTC 12923 (S)
In short: as §1

[3] = system: P. aeruginosa NCTC 13437; type: cell-based, Pseudomonas aeruginosa; settings: P. aeruginosa NCTC 13437 (R)
In short: as §1

[4] = system: A. baumannii ATCC 17978; type: cell-based, Acinetobacter baumannii; settings: A. baumannii ATCC 17978 (S)
In short: as §1

[5] = system: A. baumannii AYE; type: cell-based, Acinetobacter baumannii; settings: A. baumannii AYE (R)
In short: as §1

[6] = system: K. pneumoniae M6; type: cell-based, Klebsiella pneumoniae; settings: K. pneumoniae M6 (S)
In short: as §1

[7] = system: K. pneumoniae NCTC 13368; type: cell-based, Klebsiella pneumoniae; settings: K. pneumoniae NCTC 13368 (R)
In short: as §1

[8] = system: S. aureus (MRSA) NCTC 13616; type: cell-based, Staphylococcus aureus; settings: S. aureus (MRSA) NCTC 13616 (R)
In short: as §1

[9] = system: S. aureus (MRSA) USA300; type: cell-based, Staphylococcus aureus; settings: S. aureus (MRSA) USA300 (R)
In short: as §1

[10] = system: S. aureus (MSSA) ATCC 9144; type: cell-based, Staphylococcus aureus; settings: S. aureus (MSSA) ATCC 9144 (S)
In short: as §1

[11] = system: C. auris TDG 1912; type: cell-based, Candida auris; settings: C. auris TDG 1912
In short: as §1

[12] = system: C. albicans NCPF 3281; type: cell-based; settings: C. albicans NCPF 3281
In short: as §1

[13] = system: C. glabrata NCPF 8018; type: cell-based; settings: C. glabrata NCPF 8018
In short: as §1

[14] = system: C. krusei NCPF 3876; type: cell-based; settings: C. krusei NCPF 3876
In short: as §1

[15] = system: C. parapsilosis NCPF 3209; type: cell-based; settings: C. parapsilosis NCPF 3209
In short: as §1

[16] = system: C. tropicalis NCPF 8760; type: cell-based; settings: C. tropicalis NCPF 8760
In short: as §1

[17] = MHB, 37 °C, 20 h, OD600, min. three biological repeats
[18] = MHB, ~5×10^5 CFU/mL, 37 °C, 20 h, OD600, min. three biological repeats
[19] = 50% growth inhibition, RPMI 1640 + 2% glucose, 37 °C, 20 h, OD600
[20] = 90% growth inhibition, RPMI 1640 + 2% glucose, 37 °C, 20 h, OD600
[21] = 50% growth inhibition, RPMI 1640 + 2% glucose, 37 °C, 20 h
[22] = 90% growth inhibition, RPMI 1640 + 2% glucose, 37 °C, 20 h

Compound: CC[C@H](C)[C@H](NC(=O)CNC(=O)[C@@H](N)CCCCN)C(=O)N[C@@H](CCCNC(=N)N)C(=O)NCC(=O)N[C@@H](Cc1ccc(O)cc1)C(=O)N[C@@H](CCCCN)C(=O)NCC(=O)NCC(=O)N[C@@H](Cc1ccc(O)cc1)C(=O)N[C@@H](CS)C(=O)N[C@@H](CCCCN)C(=O)NCC(=O)N[C@@H](C)C(=O)N[C@@H](Cc1ccccc1)C(=O)N[C@@H](CCCCN)C(=O)N[C@@H](CCC(N)=O)C(=O)N[C@H](C(=O)N[C@@H](CS)C(=O)N[C@@H](CCCCN)C(=O)N[C@@H](CS)C(=O)N[C@@H](Cc1ccc(O)cc1)C(=O)O)[C@@H](C)O [Os] (H-KGIRGYKGGYCKGAFKQTCKCY-OH; N-terminus and C-terminus assumed)
- Modal MIC [1, 17]: > 128 mg/L
- Modal MIC ([1]; shown in µM): > 51.7 µM
- Modal MIC [2, 18]: > 128 mg/L
- Modal MIC ([2]; shown in µM): > 51.7 µM
- Modal MIC [3, 17]: > 128 mg/L
- Modal MIC ([3]; shown in µM): > 51.7 µM
- Modal MIC [4, 17]: > 128 mg/L
- Modal MIC ([4]; shown in µM): > 51.7 µM
- Modal MIC [5, 17]: > 128 mg/L
- Modal MIC ([5]; shown in µM): > 51.7 µM
- Modal MIC [6, 17]: > 128 mg/L
- Modal MIC ([6]; shown in µM): > 51.7 µM
- Modal MIC [7, 17]: > 128 mg/L
- Modal MIC ([7]; shown in µM): > 51.7 µM
- Modal MIC [8, 17]: > 128 mg/L
- Modal MIC ([8]; shown in µM): > 51.7 µM
- Modal MIC [9, 17]: > 128 mg/L
- Modal MIC ([9]; shown in µM): > 51.7 µM
- Modal MIC [10, 17]: > 128 mg/L
- Modal MIC ([10]; shown in µM): > 51.7 µM
- Modal MIC50 [11, 19]: > 128 mg/L
- Modal MIC90 [11, 20]: > 128 mg/L
- Modal MIC50 ([11]; shown in µM): > 51.7 µM
- Modal MIC90 ([11]; shown in µM): > 51.7 µM
- Modal MIC50 [12, 21]: > 128 mg/L
- Modal MIC90 [12, 22]: > 128 mg/L
- Modal MIC50 ([12]; shown in µM): > 51.7 µM
- Modal MIC90 ([12]; shown in µM): > 51.7 µM
- Modal MIC50 [13, 21]: > 128 mg/L
- Modal MIC90 [13, 22]: > 128 mg/L
- Modal MIC50 ([13]; shown in µM): > 51.7 µM
- Modal MIC90 ([13]; shown in µM): > 51.7 µM
- Modal MIC50 [14, 21]: > 128 mg/L
- Modal MIC90 [14, 22]: > 128 mg/L
- Modal MIC50 ([14]; shown in µM): > 51.7 µM
- Modal MIC90 ([14]; shown in µM): > 51.7 µM
- Modal MIC50 [15, 21]: > 128 mg/L
- Modal MIC90 [15, 22]: > 128 mg/L
- Modal MIC50 ([15]; shown in µM): > 51.7 µM
- Modal MIC90 ([15]; shown in µM): > 51.7 µM
- Modal MIC50 [16, 21]: > 128 mg/L
- Modal MIC90 [16, 22]: > 128 mg/L
- Modal MIC50 ([16]; shown in µM): > 51.7 µM
- Modal MIC90 ([16]; shown in µM): > 51.7 µM

Compound: CC[C@H](C)[C@H](NC(=O)CNC(=O)[C@@H](N)CCCCN)C(=O)N[C@@H](CCCNC(=N)N)C(=O)NCC(=O)N[C@@H](Cc1ccc(O)cc1)C(=O)N[C@@H](CCCCN)C(=O)NCC(=O)NCC(=O)N[C@@H](Cc1ccc(O)cc1)C(=O)N[C@@H](CS)C(=O)N[C@@H](CCCCN)C(=O)NCC(=O)N[C@@H](C)C(=O)N[C@@H](Cc1ccccc1)C(=O)N[C@@H](CCCCN)C(=O)N[C@@H](CCC(N)=O)C(=O)N[C@H](C(=O)N[C@@H](CS)C(=O)N[C@@H](CCCCN)C(=O)N[C@@H](CS)C(=O)N[C@@H](Cc1ccc(O)cc1)C(N)=O)[C@@H](C)O [Osa] (H-KGIRGYKGGYCKGAFKQTCKCY-NH2; N-terminus assumed)
- Modal MIC [1, 17]: > 128 mg/L
- Modal MIC ([1]; shown in µM): > 51.7 µM
- Modal MIC [2, 18]: > 128 mg/L
- Modal MIC ([2]; shown in µM): > 51.7 µM
- Modal MIC [3, 17]: > 128 mg/L
- Modal MIC ([3]; shown in µM): > 51.7 µM
- Modal MIC [4, 17]: > 128 mg/L
- Modal MIC ([4]; shown in µM): > 51.7 µM
- Modal MIC [5, 17]: > 128 mg/L
- Modal MIC ([5]; shown in µM): > 51.7 µM
- Modal MIC [6, 17]: > 128 mg/L
- Modal MIC ([6]; shown in µM): > 51.7 µM
- Modal MIC [7, 17]: > 128 mg/L
- Modal MIC ([7]; shown in µM): > 51.7 µM
- Modal MIC [8, 17]: > 128 mg/L
- Modal MIC ([8]; shown in µM): > 51.7 µM
- Modal MIC [9, 17]: > 128 mg/L
- Modal MIC ([9]; shown in µM): > 51.7 µM
- Modal MIC [10, 17]: > 128 mg/L
- Modal MIC ([10]; shown in µM): > 51.7 µM
- Modal MIC50 [11, 19]: > 128 mg/L
- Modal MIC90 [11, 20]: > 128 mg/L
- Modal MIC50 ([11]; shown in µM): > 51.7 µM
- Modal MIC90 ([11]; shown in µM): > 51.7 µM
- Modal MIC50 [12, 21]: > 128 mg/L
- Modal MIC90 [12, 22]: > 128 mg/L
- Modal MIC50 ([12]; shown in µM): > 51.7 µM
- Modal MIC90 ([12]; shown in µM): > 51.7 µM
- Modal MIC50 [13, 21]: > 128 mg/L
- Modal MIC90 [13, 22]: > 128 mg/L
- Modal MIC50 ([13]; shown in µM): > 51.7 µM
- Modal MIC90 ([13]; shown in µM): > 51.7 µM
- Modal MIC50 [14, 21]: > 128 mg/L
- Modal MIC90 [14, 22]: > 128 mg/L
- Modal MIC50 ([14]; shown in µM): > 51.7 µM
- Modal MIC90 ([14]; shown in µM): > 51.7 µM
- Modal MIC50 [15, 21]: > 128 mg/L
- Modal MIC90 [15, 22]: > 128 mg/L
- Modal MIC50 ([15]; shown in µM): > 51.7 µM
- Modal MIC90 ([15]; shown in µM): > 51.7 µM
- Modal MIC50 [16, 21]: > 128 mg/L
- Modal MIC90 [16, 22]: > 128 mg/L
- Modal MIC50 ([16]; shown in µM): > 51.7 µM
- Modal MIC90 ([16]; shown in µM): > 51.7 µM

Compound: CC(C)C[C@H](NC(=O)[C@H](CCCCN)NC(=O)[C@H](CO)NC(=O)[C@H](CCCCN)NC(=O)[C@@H](N)Cc1c[nH]c2ccccc12)C(=O)N[C@@H](C)C(=O)N[C@@H](CCCCN)C(=O)N[C@@H](CCCCN)C(N)=O [PS-PB-8a] (H-WKSKLAKK-NH2)
- Modal MIC [1, 17]: > 128 mg/L
- Modal MIC ([1]; shown in µM): > 127.2 µM
- Modal MIC [2, 18]: > 128 mg/L
- Modal MIC ([2]; shown in µM): > 127.2 µM
- Modal MIC [3, 17]: > 128 mg/L
- Modal MIC ([3]; shown in µM): > 127.2 µM
- Modal MIC [4, 17]: > 128 mg/L
- Modal MIC ([4]; shown in µM): > 127.2 µM
- Modal MIC [5, 17]: > 128 mg/L
- Modal MIC ([5]; shown in µM): > 127.2 µM
- Modal MIC [6, 17]: > 128 mg/L
- Modal MIC ([6]; shown in µM): > 127.2 µM
- Modal MIC [7, 17]: > 128 mg/L
- Modal MIC ([7]; shown in µM): > 127.2 µM
- Modal MIC [8, 17]: > 128 mg/L
- Modal MIC ([8]; shown in µM): > 127.2 µM
- Modal MIC [9, 17]: > 128 mg/L
- Modal MIC ([9]; shown in µM): > 127.2 µM
- Modal MIC [10, 17]: > 128 mg/L
- Modal MIC ([10]; shown in µM): > 127.2 µM
- Modal MIC50 [11, 19]: > 128 mg/L
- Modal MIC90 [11, 20]: > 128 mg/L
- Modal MIC50 ([11]; shown in µM): > 127.2 µM
- Modal MIC90 ([11]; shown in µM): > 127.2 µM
- Modal MIC50 [12, 21]: > 128 mg/L
- Modal MIC90 [12, 22]: > 128 mg/L
- Modal MIC50 ([12]; shown in µM): > 127.2 µM
- Modal MIC90 ([12]; shown in µM): > 127.2 µM
- Modal MIC50 [13, 21]: > 128 mg/L
- Modal MIC90 [13, 22]: > 128 mg/L
- Modal MIC50 ([13]; shown in µM): > 127.2 µM
- Modal MIC90 ([13]; shown in µM): > 127.2 µM
- Modal MIC50 [14, 21]: > 128 mg/L
- Modal MIC90 [14, 22]: > 128 mg/L
- Modal MIC50 ([14]; shown in µM): > 127.2 µM
- Modal MIC90 ([14]; shown in µM): > 127.2 µM
- Modal MIC50 [15, 21]: > 128 mg/L
- Modal MIC90 [15, 22]: > 128 mg/L
- Modal MIC50 ([15]; shown in µM): > 127.2 µM
- Modal MIC90 ([15]; shown in µM): > 127.2 µM
- Modal MIC50 [16, 21]: > 128 mg/L
- Modal MIC90 [16, 22]: > 128 mg/L
- Modal MIC50 ([16]; shown in µM): > 127.2 µM
- Modal MIC90 ([16]; shown in µM): > 127.2 µM
